Legend:
[1] = Solubility of resveratrol in glycerin tested using UV/vis spectroscopy; format: physicochemical
Text: This low solubility inhibits adequate, reproducible absorption from the gastrointestinal tract. For this reason, poor solubility is closely associated with low bioavailability. […] Glycerin engages in H-bonding interactions at both ends of the molecule, forming a 2:1 H-bonding complex.

[2] = cited from earlier work

Oc1ccc(C=Cc2cc(O)cc(O)c2)cc1 [resveratrol, 3,5,4′-trihydroxystilbene]
times more soluble in glycerin than in water ([1]; glycerin versus water): at least 48 times
solubility of resveratrol in glycerin ([1]; glycerin, UV/vis spectroscopy): ≥ 144 mg/100 mL
solubility of resveratrol in water [2]: approximately 3 mg/100 mL
